Results: article PMC11617253, “Gene expansion in the hawkmoth Manduca sexta drives evolution of food-associated odorant receptors” (iScience, 2024)

What was measured:
Assay in all cases: single sensillum recording, Drosophila empty neuron (ab3A)
Format in all cases: cell-based
MsexOR36 = target: T1, MsexOR36 (Manduca sexta, UniProt A0A0P1IVT0); conditions: odor dilution 10^-2 v/v on filter paper, 500 ms pulse
T1 construct: gene OR-36; full-length CDS (407 aa) from antennal RNA, UAS transgene (pUASTattB) in D. melanogaster ab3A empty neuron (delta-halo; DmelOr22a-Gal4); partner is endogenous fly Orco; with Odorant receptor coreceptor (Drosophila melanogaster, endogenous to the ab3A neuron)
T1 sequence (A0A0P1IVT0 1-407): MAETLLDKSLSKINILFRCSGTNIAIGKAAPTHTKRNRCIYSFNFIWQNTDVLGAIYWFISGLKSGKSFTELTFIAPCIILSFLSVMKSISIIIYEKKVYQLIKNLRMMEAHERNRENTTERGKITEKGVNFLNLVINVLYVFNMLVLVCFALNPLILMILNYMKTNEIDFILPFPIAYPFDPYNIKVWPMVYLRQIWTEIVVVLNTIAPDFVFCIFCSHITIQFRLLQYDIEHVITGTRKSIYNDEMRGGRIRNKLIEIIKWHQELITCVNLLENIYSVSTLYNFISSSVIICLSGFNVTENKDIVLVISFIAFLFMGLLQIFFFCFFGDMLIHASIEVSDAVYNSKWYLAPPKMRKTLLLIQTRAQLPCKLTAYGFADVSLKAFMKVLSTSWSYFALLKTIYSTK
T1 sequence (Q9VNB5 1-486 partner): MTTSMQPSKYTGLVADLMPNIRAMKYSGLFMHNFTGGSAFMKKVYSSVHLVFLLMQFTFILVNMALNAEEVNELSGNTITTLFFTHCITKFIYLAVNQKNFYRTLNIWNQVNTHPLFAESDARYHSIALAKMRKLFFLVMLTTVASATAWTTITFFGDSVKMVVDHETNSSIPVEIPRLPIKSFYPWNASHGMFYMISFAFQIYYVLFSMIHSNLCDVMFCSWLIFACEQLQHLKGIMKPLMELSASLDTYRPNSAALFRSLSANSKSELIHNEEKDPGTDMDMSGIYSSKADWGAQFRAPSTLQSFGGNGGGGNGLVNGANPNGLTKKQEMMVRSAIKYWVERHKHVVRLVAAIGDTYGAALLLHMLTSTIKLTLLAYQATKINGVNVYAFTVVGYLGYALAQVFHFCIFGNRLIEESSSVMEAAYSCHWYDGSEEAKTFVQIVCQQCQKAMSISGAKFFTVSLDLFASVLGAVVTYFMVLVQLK

MsexOR33 = target: T2, MsexOR33 (Manduca sexta, UniProt A0A0P1J430); conditions: odor dilutions 10^-7 to 10^-2 v/v on filter paper, 500 ms pulse
T2 construct: gene OR-33; full-length CDS from antennal RNA, UAS transgene (pUASTattB) in D. melanogaster ab3A empty neuron (delta-halo; DmelOr22a-Gal4); partner is endogenous fly Orco; with Odorant receptor coreceptor (Drosophila melanogaster, endogenous to the ab3A neuron)
T2 sequence (A0A0P1J430 entry or part of it, one chain of several): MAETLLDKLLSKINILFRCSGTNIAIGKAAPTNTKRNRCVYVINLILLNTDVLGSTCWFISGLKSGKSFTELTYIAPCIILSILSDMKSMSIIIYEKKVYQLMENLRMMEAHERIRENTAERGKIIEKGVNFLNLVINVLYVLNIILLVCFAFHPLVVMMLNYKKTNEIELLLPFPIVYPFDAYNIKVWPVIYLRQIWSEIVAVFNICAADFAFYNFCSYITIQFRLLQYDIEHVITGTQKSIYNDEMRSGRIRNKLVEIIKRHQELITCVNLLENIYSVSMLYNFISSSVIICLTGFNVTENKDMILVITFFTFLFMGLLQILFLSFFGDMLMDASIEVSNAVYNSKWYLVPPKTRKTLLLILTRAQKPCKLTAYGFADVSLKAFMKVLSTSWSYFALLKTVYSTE

MsexOR8 = target: T3, MsexOR8 (Manduca sexta, UniProt A0A0P1IW06); conditions: odor dilutions 10^-7 to 10^-2 v/v on filter paper, 500 ms pulse
T3 construct: gene OR-8; full-length CDS from antennal RNA, UAS transgene (pUASTattB) in D. melanogaster ab3A empty neuron (delta-halo; DmelOr22a-Gal4); partner is endogenous fly Orco; with Odorant receptor coreceptor (Drosophila melanogaster, endogenous to the ab3A neuron)
T3 sequence (A0A0P1IW06 1-407): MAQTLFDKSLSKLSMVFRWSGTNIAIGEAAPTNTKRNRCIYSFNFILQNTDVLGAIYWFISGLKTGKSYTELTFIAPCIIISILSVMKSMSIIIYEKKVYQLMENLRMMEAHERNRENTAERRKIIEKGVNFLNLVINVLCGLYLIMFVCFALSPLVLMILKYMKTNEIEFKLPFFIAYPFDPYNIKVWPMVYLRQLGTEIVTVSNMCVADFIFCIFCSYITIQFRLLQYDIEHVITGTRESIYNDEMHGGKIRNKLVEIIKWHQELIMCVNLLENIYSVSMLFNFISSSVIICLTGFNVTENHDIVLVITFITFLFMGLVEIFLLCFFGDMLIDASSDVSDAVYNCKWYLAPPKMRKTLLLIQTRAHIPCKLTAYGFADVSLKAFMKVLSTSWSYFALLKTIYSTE
T3 sequence (Q9VNB5 1-486 partner): T1 sequence (Q9VNB5 1-486 partner)

Compound: C=CC(C)=CCC=C(C)C [β-ocimene]
- single sensillum recording, Drosophila empty neuron (ab3A) (MsexOR36): β-ocimene, which was detected only by MsexOR36

Compound: CCCCCCCCC=O [nonanal]
- single sensillum recording, Drosophila empty neuron (ab3A) (MsexOR33): each responding to only one odorant: MsexOR33 (nonanal) and MsexOR8 (propyl valerate)

Compound: CCCCC(=O)OCCC [propyl valerate]
- single sensillum recording, Drosophila empty neuron (ab3A) (MsexOR8): each responding to only one odorant: MsexOR33 (nonanal) and MsexOR8 (propyl valerate)
